The source of these data is ChEMBL document CHEMBL1158941, “Diterpenes from the Pohnpeian marine sponge Chelonaplysilla sp” (J Nat Prod, 1991).

Assay [1] has as its system Bacillus subtilis. The assay is described as follows: Antimicrobial activity against Bacillus subtilis at 50 ug/disk. Type of assay: functional, organism-based.
Assay [2] relates to Bacillus subtilis. The assay is described as follows: Antimicrobial activity against Bacillus subtilis at 5 ug/disk. Type of assay: functional, organism-based.

Each structure is given as a SMILES string. Calls of active or inactive are those of the source. No cut-off for these calls is given here.

Turning to `C=C1CCCC(C)(C)[C@@H]2CC[C@@](C)([C@@H]3[C@H]4CC(=O)O[C@H]4O[C@H]3O)[C@H]12`, the result with Bacillus subtilis [1] was Active. `C=C1CCCC(C)(C)[C@@H]2CC[C@@](C)([C@@H]3[C@@H]4OC(=O)C[C@H]3[C@H](OC(C)=O)O4)[C@H]12`: the outcome in the assay with Bacillus subtilis [2] was Active. On the same count and under the same terms, as for `C=C([C@@H]1[C@@H]2OC(=O)C[C@H]1[C@H](OC(C)=O)O2)[C@H]1CC[C@H]2C(C)(C)CCCC(=C)[C@]12C`, the entry is “Active”.
